System: MV-4-11 cells
Test: Gene expression microarray analysis (Affymetrix PrimeView) and GSEA
Type: cell-based, human
Conditions: gene FGFR1OP; ACY-1035 1 mM; LIST F

## Nc1ccc(-c2cccs2)cc1NC(=O)c1ccc2c(c1)cc(C1CC1)n2CCN1CCOCC1 [ACY-1035]
  RFU, FGFR1OP (ProbeSet 11751329_s_at): 243.91 RFU
